From patent US10106510B2, “Substituted isoxazoles for treating cancer” (EPIZYME, INC., priority 2014, dated 2018)
pIC50: −log10 of the molar value.

Columns and labels:
SMYD3 [1] = target: T1, SMYD3 (Homo sapiens (Human), UniProt Q9H7B4); test: SMYD3 biochemical assay (SMYD3 enzyme assay on MEKK2 protein substrate, scintillation proximity assay); details: 3H-SAM, SPA, IC50 values are an average of n = 1 to n = 50, read-out: SMYD3 Biochem IC50
Source text: S-adenosylmethionine (SAM), S-adenosylhomocysteine (SAH), Tris, Tween20, dimethylsulfoxide (DMSO), bovine skin gelatin (BSG), and Tris(2-carboxyethyl)phosphine hydrochloride solution (TCEP) were purchased from Sigma-Aldrich at the highest level of purity possible. ^3H-SAM was purchase from American Radiolabeled Chemicals with a specific activity of 80 Ci/mmol. 384-well opaque white OptiPlates and SPA beads (Perkin Elmer, catalog # RPNQ0013) were purchased from PerkinElmer.
N-terminally GST-tagged MEKK2 (MAP3K2) protein corresponding to reference sequence AAF63496.3 was purchased from Life Technologies (catalog # PV4010). […] Protein identity was confirmed by MS/MS analysis after proteolytic digestion. The protein sequence used was:
Full-length human SMYD3 isoform 1 (BAB86333) was inserted into a modified pET21b plasmid containing a His6 tag and TEV and SUMO cleavage sites. Because two common variants of SMYD3 exist in the population, site directed mutagenesis was subsequently performed to change amino acid 13 from an asparagine to a lysine, resulting in plasmid pEPZ533.
E. coli (BL21 codonplus RIL strain, Stratagene) were transformed with plasmid pEPZ553 by mixing competent cells and plasmid DNA and incubating on ice for 30minutes followed by heat shock at 42° C. for 1 minute and cooling on ice for 2 minutes. Transformed cells were grown and selected on LB agar with 100 μg/mL ampicillin and 17 μg/mL chloramphenicol at 37° C. overnight. A single clone was used to inoculate 200 mL of LB medium with 100 μg/mL ampicillin and 17 μg/mL chloramphenicol and incubated at 37° C. on an orbital shaker at 180 rpm. Once in log growth, the culture was diluted 1:100 into 2 L of LB medium and grown until OD600 was about 0.3 after which the culture was incubated at 15° C. and 160 rpm. Once OD600 reached about 0.4, IPTG was added to a final concentration of 0.1 mM and the cells were grown overnight at 15° C. and 160 rpm. Cells were harvested by centrifugation at 8000 rpm, for 4 minutes at 4° C. and stored at −80° C. for purification.
The column was washed with Buffer B (Buffer A plus 20 mM imidazole) and His-tagged SMYD3 was eluted with Buffer C (Buffer A plus 300 mM imidazole). The His tag, TEV and SUMO cleavage sites were removed generating native SMYD3 by addition of ULP1 protein at a ratio of 1:200 (ULP1:SMYD3). Imidazole was removed by dialysis overnight in Buffer A. The dialyzed solution was applied to a second Nickel column and the native SMYD3 protein was collected from the column flow-through. The flow-through was dialyzed in Buffer D (25 mM Tris, 5% glycerol, 5 mM β-mercaptoethanol, 50 mM NaCl, pH7.8) and ULP1 was removed using a Q sepharose fast flow column.
General Procedure for SMYD3 Enzyme Assays on MEKK2 Protein Substrate
The assays were all performed in a buffer consisting of 25 mM Tris-Cl pH 8.0, 1 mM TCEP, 0.005% BSG, and 0.005% Tween 20, prepared on the day of use. Compounds in 100% DMSO (1 ul) were spotted into a 384-well white opaque OptiPlate using a Bravo automated liquid handling platform outfitted with a 384-channel head (Agilent Technologies). DMSO (1 ul) was added to Columns 11, 12, 23, 24, rows A-H for the maximum signal control and 1 ul of SAH, a known product and inhibitor of SMYD3, was added to columns 11, 12, 23, 24, rows I-P for the minimum signal control. A cocktail (40 ul) containing the SMYD3 enzyme was added by Multidrop Combi (Thermo-Fisher). The compounds were allowed to incubate with SMYD3 for 30 min at room temperature, then a cocktail (10 ul) containing SAM and MEKK2 was added to initiate the reaction (final volume=51 ul).

SMYD3 [2] = target: T1, SMYD3; test: SMYD3 cell assay (Trimethyl-MEKK2 In-Cell Western in 293T/17 cells); assay type: cell-based; details: 293T/17 cells transfected with MEKK2-flag and SMYD3, trimethyl-MEKK2 In-Cell Western, 24 hours, top concentration 40 μM; average of n = 1 to n = 50
Source text: Trimethyl-MEKK2-In-Cell Western Assay
293T/17 adherent cells were purchased from ATCC (American Type Culture Collection), Manassas, Va., USA. MEM/Glutamax medium, Optimem Reduced Serum medium, penicillin-streptomycin, 0.05% trypsin and 1×D-PBS were purchased from Life Technologies, Grand Island, N.Y., USA. PBS-10× was purchased from Ambion, Life Technologies, Grand Island, N.Y., USA. PBS with Tween 20 (PBST (10×)) was purchased from KPL, Gaithersburg, Md., USA. Tet System FBS-approved FBS US Source was purchased from Clontech, Mountain View, Calif., USA. Odyssey blocking buffer, 800 CW goat anti-rabbit IgG (H+L) antibody, 680 CW Goat anti-mouse IgG (H+L) and Licor Odyssey infrared scanner were purchased from Licor Biosciences, Lincoln, Nebr., USA. Tri-methyl-Lysine [A260]-MEKK2 antibody, MEKK2 and SMYD3 plasmids were made at Epizyme. Anti-flag monoclonal mouse antibody was purchased from Sigma, St. Louis, Mo., USA. Methanol was purchased from VWR, Franklin, Mass., USA. 10%) Tween 20 was purchased from KPL, Inc., Gaithersburg, Md., USA. Fugene was purchased from Promega, Madison, Wis., USA. The Biotek ELx405 was purchased from BioTek, Winooski, Vt., USA. The multidrop combi was purchased from Thermo Scientific, Waltham, Mass., USA.
293T/17 adherent cells were maintained in growth medium (MEM/Glutamax medium supplemented with 10% v/v Tet System FBS and cultured at 37° C. under 5% CO2.
Cell Treatment, In Cell Western (ICW) for Detection of Trimethyl-Lysine-MEKK2 and MEKK2
293T/17 cells were seeded in assay medium at a concentration of 33,333 cells per cm^2 in 30 mL medium per T150 flask and incubated at 37° C. under 5% CO2. Plasmids were prepared for delivery to cells by first mixing 1350 μL Opti-MEM with Fugene (81 μL) in a sterile Eppendorf and incubated for five minutes at room temperature (RT). MEKK2-flag (13.6 ug/T150) MEKK2 p3XFlag-CMV-14 with C-3XFlag and SMYD3 (0.151 ug/T150) SMYD3 p3XFlag-CMV-14 without C-3XFlag plasmids were aliquotted to a 1.7 mL sterile microfuge tube. The gene ID for MEKK2 and SMYD3 is NM_006609.3 and Q9H7B4, respectively. Entire volume of Opti-MEM/Fugene mixture was then added to a microfuge tube containing DNA plasmid, mixed and then incubated××15 minutes at RT. The medium on the 293T/17 cells was refreshed, and the DNA/Fugene complex is added aseptically to each flask, rocked gently, and incubated at 37 C for 5 hours. Medium was then removed, and cells were washed once with PBS in the flask. Trypsin 0.05% (3 mL) was added and cells incubated for three minutes. Room temperature MEM+10% Tet system FBS was added and cells were mixed gently, and counted using the Vi-cell. Cells were seeded at 100,000 cells/mL in 50 μL MEM/10% Tet FBS/Pen/Strep to a 384 well black/clear poly-D-lysine coated plate containing test agent diluted in DMSO. The final top concentration of test compound was 40 μM. […] Plates were incubated ×30 minutes at RT in low-airflow area, followed by incubation at 37° C. under 5% CO2 for 24 hours. Medium was aspirated from all wells of assay plates prior to fixation and permeabilization with ice cold (−20° C.) methanol (90 μL/well) for ten minutes. Plates were rinsed with PBS three times on BioTek ELx405. PBS was removed with a final aspiration, and Odyssey blocking buffer (50 μL/well) was added to each well and incubated for one hour at RT. Primary antibody solution was prepared (anti-trimethyl-MEKK2 at 1:600 dilution plus mouse anti-flag antibody at 1:10,000 dilution in diluent (Odyssey Blocking buffer+0.1% Tween 20)) and 20 μL per well was dispensed using the Multidrop Combi. Assay plates were then sealed with foil, and incubated overnight at 4° C. Plates were washed five times with PBS-Tween (IX) on Biotek ELx405 and blotted on paper towel to remove excess reagent. […]

T1 sequence (Q9H7B4 whole entry): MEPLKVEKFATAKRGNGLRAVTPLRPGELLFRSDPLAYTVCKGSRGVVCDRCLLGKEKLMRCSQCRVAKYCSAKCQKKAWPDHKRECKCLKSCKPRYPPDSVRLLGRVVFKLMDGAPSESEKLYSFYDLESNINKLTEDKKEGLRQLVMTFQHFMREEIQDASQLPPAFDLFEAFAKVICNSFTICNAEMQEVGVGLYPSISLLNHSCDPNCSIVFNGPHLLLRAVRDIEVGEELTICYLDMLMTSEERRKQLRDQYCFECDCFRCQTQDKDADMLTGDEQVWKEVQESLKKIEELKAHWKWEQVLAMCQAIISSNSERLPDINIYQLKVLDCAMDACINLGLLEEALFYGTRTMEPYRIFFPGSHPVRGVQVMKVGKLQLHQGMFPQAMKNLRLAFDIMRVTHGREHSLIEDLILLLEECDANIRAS

CCc1cc(C(=O)N[C@H]2CC[C@H](NC(=O)C[C@@H](C)N)C[C@H]2CC)no1 (mixture of isomers) [Cpd. No. 6, Mixture of N-((1S,2R,4S)-4-((R)-3-aminobutanamido)-2-ethylcyclohexyl)-5-ethylisoxazole-3-carboxamide and N-((1R,2S,4R)-4-((R)-3-aminobutanamido)-2-ethylcyclohexyl)-5-ethyl-isoxazole-3-carboxamide; (1S,2R,4S) isomer is depicted]
pIC50 (SMYD3 [1]): 7.01
pIC50 (SMYD3 [2]): 6.02

C[C@@H](N)CC(=O)N[C@H]1CC[C@H](NC(=O)c2cc(C3CC3)on2)[C@H](Cc2ccccc2)C1 (mixture of isomers) [Cpd. No. 39, Mixture of N-((1S,2R,4S)-4-((R)-3-aminobutanamido)-2-benzylcyclohexyl)-5-cyclopropylisoxazole-3-carboxamide and N-((1R,2S,4R)-4-((R)-3-aminobutanamido)-2-benzylcyclohexyl)-5-cyclopropylisoxazole-3-carboxamide; (1S,2R,4S) isomer is depicted.]
pIC50 (SMYD3 [1]): 7.54
pIC50 (SMYD3 [2]): 6.59

C[C@@H](N)CC(=O)N[C@H]1CC[C@H](NC(=O)c2cc(C3CC3)on2)CC1 [compound 5, N-((1R,4r)-4-((R)-3-aminobutanamido)cyclohexyl)-5-cyclopropylisoxazole-3-carboxamide]
pIC50 (SMYD3 [1]): 6.40
pIC50 (SMYD3 [2]): 5.00

O=C(CCN1CCCC1)N[C@H]1CC[C@H](NC(=O)c2cc(C3CC3)on2)CC1 [compound 11, 5-cyclopropyl-N-((1r,4r)-4-(3-(pyrrolidin-1-yl)propanamido)cyclohexyl)isoxazole-3-carboxamide]
pIC50 (SMYD3 [1]): 6.73
pIC50 (SMYD3 [2]): 5.71

N[C@H]1CC[C@H](C(=O)N[C@H]2CC[C@H](NC(=O)c3cc(C4CC4)on3)CC2)C1 [compound 32, N-((1S,4r)-4-((1S,3S)-3-aminocyclopentane-1-carboxamido)cyclohexyl)-5-cyclopropylisoxazole-3-carboxamide]
pIC50 (SMYD3 [1]): 6.25
pIC50 (SMYD3 [2]): 5.29

NCCCN(C(=O)CCN)[C@H]1CC[C@H](NC(=O)c2cc(C3CC3)on2)CC1 [compound 33, N-((1r,4r)-4-(3-amino-N-(3-aminopropyl)propanamido)cyclohexyl)-5-cyclopropylisoxazole-3-carboxamide]
pIC50 (SMYD3 [1]): 6.37
pIC50 (SMYD3 [2]): < 4.40
